These results are taken from PMC12203525, “The insight into the biology of five homologous lectins produced by the entomopathogenic bacterium and nematode symbiont Photorhabdus laumondii” (Glycobiology, 2025).

The target of assay [1] is T1, PLL (Photorhabdus laumondii subsp. laumondii, UniProt Q7N8J0). In words: SPR, apparent KD on immobilized sugar. More on the design: species or system Photorhabdus laumondii subsp. laumondii TT01. The settings on record: PLL binding to the immobilized sugar, 25 °C, read-out: KD(app). As for the experimental part: (§1) SPR experiments were carried out on BIAcore T200 or BIAcore S200 instruments (GE Healthcare, UK). Sugar moieties were immobilized on the chip surface using the standard procedures according to the manufacturer’s instructions. Measurements with immobilized MGMR were performed on the chip prepared previously (high-density chip) ([Fujdiarová et al. 2021]). Measurements with immobilized α-L-fucose were performed on the streptavidin chip (GE Healthcare, UK). Biotinylated α-L-fucose was immobilized on channel 2 to yield a final response of 29 RU, unmodified channel 1 was used as a control.
(§2) Measurements were performed in Tris buffer with the addition of 0.05% Tween 20 at a flow rate of 30 μl/min at 25 °C. […] 50 mM NaOH for 30 s (flow 30 μl/min) was used for chip regeneration. To determine KDs (app) towards MGMR, 2-fold dilution series of lectins was used (PLL: 0.048 – 50 μM, PLL4: 0.008 - 2 μM; PLL5: 1.9 – 500 nM). The data were evaluated with the BIAcore T200 or BIAcore S200 evaluation software using a steady state approach. To determine KD(app) towards α-L-fucose, 2-fold dilution series of lectins was used (PLL: 1.25 – 20 μM, PLL4: 0.39 – 12.5 μM; PLL5: 0.12 – 30 μM). The data were evaluated with the BIAcore T200 or BIAcore S200 evaluation software using a steady state approach (PLL5) or a single-cycle kinetics approach (PLL, PLL4). For SPR inhibition experiments on the MGMR channel, 250 nM PLL, 250 nM PLL4 or 62 nM PLL5, respectively, was used. Proteins of the given concentration were mixed with a concentration series of tested inhibitors (0.01 - 0.4 M). Proteins without an inhibitor were used as a control. The response of the lectin bound to the sugar surface at equilibrium was plotted against the concentration of inhibitor in order to determine IC50. The response in the appropriate blank channel was subtracted prior to all evaluations.
For orientation: SPR reads the build-up and loss of mass on a sensor chip optically.

In assay [2] the target is T2, PLL4 (Photorhabdus laumondii subsp. laumondii, UniProt Q7N8I6). In words: SPR, apparent KD on immobilized sugar. More on the design: species or system Photorhabdus laumondii subsp. laumondii TT01. The settings on record: PLL4 binding to the immobilized sugar, 25 °C, read-out: KD(app). The protocol:
as §1, §2

The target in assay [3] is T3, PLL5 (Photorhabdus laumondii subsp. laumondii, UniProt Q7N8I5). In words: SPR, apparent KD on immobilized sugar. To be noted: PLL5 binding to the immobilized sugar, 25 °C, read-out: KD(app). More on the design: species or system Photorhabdus laumondii subsp. laumondii TT01. The protocol: as §1, §2
Assay [4] deals with T2, PLL4. In words: Glycan microarray screening (634 saccharide ligands). Type of assay: binding, Photorhabdus laumondii subsp. laumondii TT01. The settings on record: DyLight488-labelled PLL4, 200 μg/mL. The protocol: Lectins were fluorescently labelled with DyLight 488 according to the manufacturer’s instructions and the unbound dye was extensively dialyzed out of the protein solution. The microarray chip (Semiotik LLC, Moscow, Russia, batch OSPS280715) containing 634 saccharide ligands, each in 6 replicates, was treated with PBS (137 mM NaCl, 2.7 mM KCl, 8 mM Na2HPO4, […], pH 7.4) with added 0.1% Tween-20 for 15 min. The labelled proteins (200 μg/mL) were then separately applied to the chip surface and incubated in a humidity chamber at 37 °C for 1 h. After the incubation, the unbound protein was washed out with PBS containing 0.05% Tween-20 and deionized water. The chip was dried by airflow and scanned using an InnoScan1100 AL (Innopsys, Carbonne, France) with a 488 nm laser. The data were analyzed with the software Mapix 8.2.2 and an online glycan chip converter (Semiotic, https://rakitko.shinyapps.io/semiotik).

The target of assay [5] is PLL2. Also noted: method as in Faltinek et al. 2019; Fujdiarová et al. 2021. To be noted: PLL2 binding to the immobilized sugar, SPR; ref Faltinek et al. 2019; Fujdiarová et al. 2021; read-out: KD(app); cited from earlier work.
Assay [6] has as its target PLL3. Also noted: method as in Faltinek et al. 2019; Fujdiarová et al. 2021. The settings on record: PLL3 binding to the immobilized sugar, SPR; ref Faltinek et al. 2019; Fujdiarová et al. 2021; read-out: KD(app); cited from earlier work.
The target in assay [7] is T1, PLL. In words: SPR inhibition assay on the MGMR channel. To be noted: inhibition of PLL (250 nM) binding to immobilized MGMR. Also noted: species or system Photorhabdus laumondii subsp. laumondii TT01. As for the experimental part: as §1, §2
Assay [8] deals with T2, PLL4. Kind of assay: SPR inhibition assay on the MGMR channel. Also noted: species or system Photorhabdus laumondii subsp. laumondii TT01. The settings on record: inhibition of PLL4 (250 nM) binding to immobilized MGMR. As for the experimental part: as §1, §2
In assay [9] the target is T3, PLL5. Kind of assay: SPR inhibition assay on the MGMR channel. Also noted: species or system Photorhabdus laumondii subsp. laumondii TT01. To be noted: inhibition of PLL5 (62 nM) binding to immobilized MGMR. The protocol:
as §1, §2

In assay [10] the target is T1, PLL. Kind of assay: Isothermal titration calorimetry (ITC). The class given is binding, Photorhabdus laumondii subsp. laumondii TT01. The settings on record: ITC. As for the experimental part: (§3) ITC experiments were performed using an Auto-ITC200 calorimeter or Automated PEAQ-ITC calorimeter (both Malvern Panalytical, Malvern, UK). Measurements were carried out at 25 °C in the Tris buffer. Before the analyses, lectins were extensively dialyzed against the Tris buffer and the dialysate was used to dissolve ligands. The protein (0.1 mM or 0.2 mM) in the cell was titrated with 2 μL injections of the ligand (20 mM or 40 mM). […] Experiments for each interacting ligand were carried out in triplicates. Integrated heat effects were evaluated by nonlinear regression using a single-site binding model in Origin 7 (OriginLab, Northampton, USA) ([Wiseman et al. 1989]). Triplicate measurements were fitted simultaneously using a global fit approach. Due to the low affinity of the interaction, the binding stoichiometry was fixed during the fitting.
(In general: Isothermal titration calorimetry measures the heat released or taken up as one component is titrated into another.)

Assay [11] addresses T2, PLL4. Kind of assay: Isothermal titration calorimetry (ITC). Type of assay: binding, Photorhabdus laumondii subsp. laumondii TT01. The settings on record: ITC. As for the experimental part:
as §3

Assay [12] has as its target T3, PLL5. In words: Isothermal titration calorimetry (ITC). To be noted: ITC. Type of assay: binding, Photorhabdus laumondii subsp. laumondii TT01. As for the experimental part: as §3
The test system of assay [13] is PLL2. Also noted: method as in Faltinek et al. 2019; Fujdiarová et al. 2021. To be noted: inhibition of PLL2 binding to immobilized MGMR; ref Faltinek et al. 2019; Fujdiarová et al. 2021; read-out: IC50; cited from earlier work.
For assay [14], the system named is PLL3. More on the design: method as in Faltinek et al. 2019; Fujdiarová et al. 2021. To be noted: inhibition of PLL3 binding to immobilized MGMR; ref Faltinek et al. 2019; Fujdiarová et al. 2021; read-out: IC50; cited from earlier work.
The target of assay [15] is PLL2. More on the design: method as in Fujdiarová et al, 2021, Faltinek et al, 2019. The settings on record: ITC, ref Fujdiarová et al, 2021, Faltinek et al, 2019, cited from earlier work.
The target of assay [16] is PLL3. Also noted: method as in Fujdiarová et al, 2021, Faltinek et al, 2019. The settings on record: ITC, ref Fujdiarová et al, 2021, Faltinek et al, 2019, cited from earlier work.
The mark [17] stands for this setting: PLL4, stoichiometry N fixed to 4.
[18] abbreviates: PLL5, stoichiometry N fixed to 4.
[19] abbreviates: PLL2, stoichiometry N fixed to 4.
Setting [20] is: PLL3, stoichiometry N fixed to 4.

Where two headings read alike, the source gives them in different places.

T3 sequence (Q7N8I5 entry or part of it): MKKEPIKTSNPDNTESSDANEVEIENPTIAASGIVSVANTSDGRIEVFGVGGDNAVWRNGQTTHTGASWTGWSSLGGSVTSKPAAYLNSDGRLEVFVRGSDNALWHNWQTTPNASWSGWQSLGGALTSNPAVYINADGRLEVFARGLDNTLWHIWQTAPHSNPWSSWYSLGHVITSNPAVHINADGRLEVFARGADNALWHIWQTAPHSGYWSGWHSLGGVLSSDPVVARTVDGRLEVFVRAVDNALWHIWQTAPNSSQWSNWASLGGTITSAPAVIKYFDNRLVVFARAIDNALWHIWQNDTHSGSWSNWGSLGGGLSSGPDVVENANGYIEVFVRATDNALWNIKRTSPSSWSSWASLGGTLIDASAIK
T1 sequence (Q7N8J0 entry or part of it): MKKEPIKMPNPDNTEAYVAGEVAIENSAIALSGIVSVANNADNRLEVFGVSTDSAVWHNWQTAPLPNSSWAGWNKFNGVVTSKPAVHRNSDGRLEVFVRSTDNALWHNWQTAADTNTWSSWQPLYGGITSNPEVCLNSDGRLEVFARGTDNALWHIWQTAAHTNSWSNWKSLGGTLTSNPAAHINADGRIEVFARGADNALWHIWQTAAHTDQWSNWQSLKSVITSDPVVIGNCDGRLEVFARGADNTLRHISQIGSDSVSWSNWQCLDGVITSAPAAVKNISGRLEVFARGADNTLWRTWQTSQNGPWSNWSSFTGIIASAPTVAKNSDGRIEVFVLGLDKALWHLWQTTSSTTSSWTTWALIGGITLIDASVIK
T2 sequence (Q7N8I6 entry or part of it): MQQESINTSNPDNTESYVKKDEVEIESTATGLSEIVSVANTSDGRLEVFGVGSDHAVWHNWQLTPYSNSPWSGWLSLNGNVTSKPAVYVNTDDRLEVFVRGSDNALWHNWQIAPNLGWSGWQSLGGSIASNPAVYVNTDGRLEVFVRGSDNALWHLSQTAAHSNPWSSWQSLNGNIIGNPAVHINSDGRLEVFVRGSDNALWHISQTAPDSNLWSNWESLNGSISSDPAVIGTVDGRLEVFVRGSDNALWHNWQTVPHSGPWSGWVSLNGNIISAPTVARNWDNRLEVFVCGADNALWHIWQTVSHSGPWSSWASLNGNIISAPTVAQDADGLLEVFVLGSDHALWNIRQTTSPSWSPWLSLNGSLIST

α-L-fucoside: the Kd in assay [1] was 8.5 ± 0.2 µM; in assay [2], 4.3 ± 0.1 µM; in assay [3] it was 64 ± 8.6 µM; in [5], 117 ± 4.8 µM; in assay [6], 322 ± 86 µM. Further, the “glycan array binding (in words)” value in [4] is “recognized”.

Take `COC[C@H]1O[C@@H](O[C@@H]2[C@@H](OC)[C@@H](OC)[C@H](O)O[C@H]2C)[C@H](O)[C@@H](OC)[C@@H]1O` [MGMR, 3,6-O-Me2-D-Glcβ1-4(2,3-O-Me2)-L-Rhaα]: the Kd was 44 ± 4.6 µM in assay [1]; 0.8 ± 0.06 µM in assay [2]; 0.3 ± 0.03 µM in [3]; 0.0061 ± 0.0002 µM in assay [5]; 607 ± 46 µM in assay [6].

A word on the IC50: it is the concentration at which inhibition is half-maximal. Take `CO[C@@H]1O[C@@H](C)[C@@H](O)[C@@H](O)[C@@H]1O` [αMeFuc, methyl-α-L-fucoside]: the IC50 is 4000 ± 1350 µM in assay [7]; 1400 ± 40 µM in [8]; 1700 ± 130 µM in assay [9]; 100 ± 10 µM in assay [13]; 1000 ± 50 µM in assay [14]. The Kd in assay [10] (stoichiometry N fixed to 2) was 3600 ± 70 µM; in assay [11] (setting [17]), 4900 ± 80 µM; in assay [12] (setting [18]), 4200 ± 170 µM; in assay [15] (setting [19]) it was 400 ± 20 µM; in [16] (setting [20]) it was 700 ± 30 µM.

Consider `C[C@H](O)[C@@H](O)[C@@H](O)[C@H](O)C=O` [L-Fuc, L-fucose], for which the half-maximal inhibitory concentration (IC50) in assay [7] is 19500 ± 7500 µM; in assay [8], 5700 ± 210 µM; in assay [9] it was 3600 ± 130 µM; in assay [13], 1200 ± 40 µM; in [14], 2500 ± 90 µM. The KD result in [10] (stoichiometry N fixed to 2), in assay [10] (stoichiometry N fixed to 4), in assay [10] (stoichiometry N fixed to 6) and in [10] (stoichiometry N fixed to 8) was “No int” throughout. Moreover, the Kd in [11] (PLL4, stoichiometry N fixed to 2) was 31200 ± 950 µM; in assay [11] (setting [17]), 29900 ± 900 µM; in assay [11] (PLL4, stoichiometry N fixed to 6) it was 28600 ± 890 µM; in assay [11] (PLL4, stoichiometry N fixed to 8), 27200 ± 860 µM; in [12] (PLL5, stoichiometry N fixed to 2), 16600 ± 1020 µM; in assay [12] (setting [18]), 16000 ± 1010 µM. Also, the Kd in assay [12] (PLL5, stoichiometry N fixed to 6) is 15400 ± 1000 µM; in assay [12] (PLL5, stoichiometry N fixed to 8) it was 14700 ± 990 µM; in assay [15] (PLL2, stoichiometry N fixed to 2), 2800 ± 70 µM; in assay [15] (setting [19]) it was 2600 ± 80 µM; in assay [15] (PLL2, stoichiometry N fixed to 6), 2400 ± 80 µM; in [15] (PLL2, stoichiometry N fixed to 8), 2100 ± 100 µM. The Kd is 3600 ± 140 µM in assay [16] (PLL3, stoichiometry N fixed to 2); 3300 ± 120 µM in assay [16] (setting [20]); 3100 ± 100 µM in assay [16] (PLL3, stoichiometry N fixed to 6); 2900 ± 100 µM in assay [16] (PLL3, stoichiometry N fixed to 8).
